{"source": "paper PMC11455950", "about": "“Effects of SZV-2649, a new multiple ion channel inhibitor mexiletine analogue” (Scientific Reports, 2024)", "key": {"[1]": {"tested_on": "dog atrial muscle", "experiment": "Conventional microelectrode action potential recording, dog atrial muscle", "conditions": "for APA / APD50 / APD90 / RP / Vmax: atrial muscle, CL = 1000 ms, n = 11", "protocol": "The effects of SZV-2649 on action potentials were studied in dog ventricular, atrial and Purkinje fiber preparations.\nAction potentials were recorded in cardiac ventricular trabeculae and papillary muscle preparations obtained from the right ventricles of Beagle dogs (10–15 kg) of either sex using the conventional microelectrode technique. Dogs were sacrificed by iv. sedation with xylazine (1 mg/kg), followed by i.v. administration of 50 mg/kg pentobarbital. After the cornea reflex disapeared the chest was opened, and the heart was rapidly removed. The heart was immediately rinsed in oxygenated modified Locke’s solution containing (in mM): NaCl 128.3, KCl 4, CaCl2 1.8, MgCl2 0.42, NaHCO3 21.4, and glucose 10. The pH of this solution was set between 7.35 and 7.4 when gassed with the mixture of 95% O2 and 5% CO2 at 37 °C.\nIsolated papillary muscle or atrial trabecula and Purkinje fiber preparations were obtained and prepared from the right ventricle and were individually mounted in a tissue chamber with the volume of 50 ml. Each preparation was initially stimulated through a pair of platinum electrodes in contact with the preparation using rectangular current pulses of 2 ms duration. These stimuli were delivered at a constant cycle length of 1000 ms for at least 60 min allowing the preparation to equilibrate before the measurements were initiated. Transmembrane potentials were recorded using conventional glass microelectrodes, filled with 3 M KCl and having tip resistances of 5–20 MΩ, connected to the input of a high impedance electrometer (Experimetria, type 309, Budapest, Hungary) which was coupled to a dual beam oscilloscope. […] Stimulation with a constant cycle length of 1000 ms was applied in the course of all experiments. Attempts were made to maintain the same impalement throughout each experiment. In case an impalement became dislodged, adjustment was attempted, and if the action potential characteristics of the re-established impalement deviated by less than 5% from the previous measurement, the experiment continued[64]–[67]. All measurements were carried out at 37 °C."}, "[2]": {"target": "T1, hERG (Kv11.1) potassium channel (Homo sapiens, UniProt Q12809)", "T1 construct": "host or cells: HEK293", "T1 sequence (Q12809 whole entry)": "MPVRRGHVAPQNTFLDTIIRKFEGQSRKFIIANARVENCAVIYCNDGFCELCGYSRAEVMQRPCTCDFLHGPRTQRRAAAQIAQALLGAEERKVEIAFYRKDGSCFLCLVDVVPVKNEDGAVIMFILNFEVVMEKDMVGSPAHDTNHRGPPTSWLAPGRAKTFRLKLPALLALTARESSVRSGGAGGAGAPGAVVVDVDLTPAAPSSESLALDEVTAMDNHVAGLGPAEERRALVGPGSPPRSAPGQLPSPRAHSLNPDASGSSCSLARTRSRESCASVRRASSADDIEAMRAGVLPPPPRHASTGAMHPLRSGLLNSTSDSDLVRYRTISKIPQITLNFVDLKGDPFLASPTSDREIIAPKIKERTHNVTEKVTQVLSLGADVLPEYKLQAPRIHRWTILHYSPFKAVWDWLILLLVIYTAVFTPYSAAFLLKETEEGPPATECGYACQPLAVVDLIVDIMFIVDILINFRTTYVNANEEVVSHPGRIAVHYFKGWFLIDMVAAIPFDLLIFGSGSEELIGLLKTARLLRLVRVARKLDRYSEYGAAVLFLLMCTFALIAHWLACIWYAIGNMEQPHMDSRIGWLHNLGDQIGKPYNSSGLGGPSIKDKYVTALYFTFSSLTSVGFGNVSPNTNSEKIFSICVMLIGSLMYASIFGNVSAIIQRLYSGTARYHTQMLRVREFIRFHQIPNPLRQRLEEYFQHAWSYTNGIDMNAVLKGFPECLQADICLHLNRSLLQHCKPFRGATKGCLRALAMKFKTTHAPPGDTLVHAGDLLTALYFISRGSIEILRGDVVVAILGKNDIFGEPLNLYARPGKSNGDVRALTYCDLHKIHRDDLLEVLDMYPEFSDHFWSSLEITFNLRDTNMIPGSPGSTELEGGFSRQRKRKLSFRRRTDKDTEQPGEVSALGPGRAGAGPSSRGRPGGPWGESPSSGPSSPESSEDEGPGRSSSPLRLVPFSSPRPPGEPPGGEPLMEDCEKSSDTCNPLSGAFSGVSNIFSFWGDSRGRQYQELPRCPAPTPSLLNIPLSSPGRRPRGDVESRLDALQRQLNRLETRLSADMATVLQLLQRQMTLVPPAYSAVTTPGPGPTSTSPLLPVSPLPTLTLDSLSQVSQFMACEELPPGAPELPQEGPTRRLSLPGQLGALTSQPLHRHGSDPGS", "experiment": "Automated planar patch-clamp, hERG current in HEK cells", "type": "cell-based", "from_the_text": "Inhibition of the hERG channel, the pore forming α-subunit of the native IKr cardiac potassium channel, is expected to prolong repolarization both in the atria and in the ventricles. The GIRK channel is the pore forming α-subunit of the acetylcholine-activated potassium channel and plays an important role in atrial electrophysiology. Its inhibition can be expected to decrease the acetylcholine-activated potassium current (IKACh), a current that plays an important role in the pathogenesis of AF. Therefore, the effects of SZV-2649 on the hERG and GIRK ion channels were studied by the planar patch-clamp technique in mammalian HEK cell lines stably expressing these channels.\nThe currents conducted by the hERG and GIRK channels were measured by using planar patch-clamp technology[,[47],[68] in the whole-cell configuration with a four-channel medium-throughput fully automated patch-clamp platform (Patchliner Quattro, Nanion Technologies GmbH, Munich, Germany) with integrated temperature control. Data acquisition and online analysis were performed with an EPC-10 Quadro patch-clamp amplifier (HEKA Elektronik Dr Schulze GmbH, Lambrecht/Pfalz, Germany), using PatchMaster 2.65 software (HEKA Elektronik Dr. Schulze GmbH). The pipetting protocols were controlled by PatchControlHT 1.09.30 software (Nanion Technologies GmbH). […]"}, "[3]": {"tested_on": "IKACh in dog atrial trabecular muscle preparations", "experiment": "Action potential duration in carbachol-pretreated dog atrial trabecular muscle", "conditions": "10 µM, after 1 µM carbachol for 10 min", "protocol": "The possible effect of SZV-2649 on IKACh was investigated in dog atrial trabecular muscle preparations. Carbachol (1 µM) was added to the tissue bath for 10 min to activate IKACh. […] Application of 10 µM SZV-2649 prolonged APD substantially to a greater degree (100%) than could be expected by its effect on repolarization in the absence of carbachol (10%) as shown in Table 1; Fig. 5D.\nAction potentials were recorded in cardiac ventricular trabeculae and papillary muscle preparations obtained from the right ventricles of Beagle dogs (10–15 kg) of either sex using the conventional microelectrode technique. Dogs were sacrificed by iv. sedation with xylazine (1 mg/kg), followed by i.v. administration of 50 mg/kg pentobarbital. After the cornea reflex disapeared the chest was opened, and the heart was rapidly removed. […]\nIsolated papillary muscle or atrial trabecula and Purkinje fiber preparations were obtained and prepared from the right ventricle and were individually mounted in a tissue chamber with the volume of 50 ml. […] Transmembrane potentials were recorded using conventional glass microelectrodes, filled with 3 M KCl and having tip resistances of 5–20 MΩ, connected to the input of a high impedance electrometer (Experimetria, type 309, Budapest, Hungary) which was coupled to a dual beam oscilloscope. […]"}}}
{"smiles": "CC(N)COc1c(I)cc(C#N)cc1I.Cl", "note": "(centres unmarked) [SZV-2649, 4-(2-aminopropoxy)-3,5-diiodobenzonitrile hydrochloride]", "values": [{"measurement": "APA", "setting": "[1]; 5 µM", "result": "108.8 ± 1.9", "unit": "mV"}, {"measurement": "APD50", "setting": "[1]; 5 µM", "result": "73.3 ± 6.2", "unit": "ms"}, {"measurement": "APD90", "setting": "[1]; 5 µM", "result": "168.9 ± 8.8", "unit": "ms"}, {"measurement": "RP", "setting": "[1]; 5 µM", "result": "−88.2 ± 1.8", "unit": "mV"}, {"measurement": "Vmax", "setting": "[1]; 5 µM", "result": "195.3 ± 22.0", "unit": "V/s"}, {"measurement": "APA", "setting": "[1]; 10 µM", "result": "102.6 ± 3.2", "unit": "mV"}, {"measurement": "APD50", "setting": "[1]; 10 µM", "result": "70.1 ± 6.2", "unit": "ms"}, {"measurement": "APD90", "setting": "[1]; 10 µM", "result": "176.8 ± 8.5", "unit": "ms"}, {"measurement": "RP", "setting": "[1]; 10 µM", "result": "−85.1 ± 1.7", "unit": "mV"}, {"measurement": "Vmax", "setting": "[1]; 10 µM", "result": "145.9 ± 12.1", "unit": "V/s"}, {"measurement": "Prolongation of repolarization (APD) in the absence of carbachol", "setting": "[1]; 10 µM, dog atrial muscle", "result": 10, "unit": "%"}, {"measurement": "IC50", "setting": "[2]; HEK cells (abstract)", "result": 342, "unit": "nM"}, {"measurement": "IC50 at 3 min", "setting": "[2]; human, HEK293 cells stably expressing hERG (Kv11.1), pH 7.4, printed in picture of Fig. 2b, read-out: Effect on hERG: EC50", "result": 342, "unit": "nM"}, {"measurement": "Prolongation of APD in the presence of carbachol", "setting": "[3]", "result": 100, "unit": "%"}]}
